Data set [1] relates to electroshock-induced fighting in mice. Briefly: Electroshock-induced fighting in mice. Type of data set: in vivo, mouse. The conditions noted are these: for ED50: Mus musculus, ip, read-out: ED50 (95% Confidence Limits), Electroshock-Induced Fighting in Mice. An excerpt:
(§1) The compound of Example 6 was compared with chlorpromazine and chlordiazepoxide for its anti-aggressive activity. Three models of experimentally-induced aggression in rodents were studied (R. D. Sofia, Life Science, 8: 705, 1969).

For data set [2], the system named is spontaneous locomotor activity in rats. Kind of data set: Spontaneous locomotor activity. Type of data set: in vivo. The conditions noted are these: Rattus norvegicus, ip, 0.5 h, read-out: SD50 (dose causing 50% reduction from control activity).
In data set [3] the test system is d-amphetamine aggregation-induced lethality. Kind of data set: d-Amphetamine aggregation. Conditions: inactive at: Example 6 200 mg/kg, chlordiazepoxide 50 mg/kg. The format is in vivo. The method, then: Protection from d-amphetamine aggregation-induced lethality is usually afforded by alpha-adrenergic-blocking agents such as chlorpromazine, phenoxybenzamine, etc. Percent protection was determined and an ED50 value was calculated.

Data set [4] can be described thus: Neurotoxicity (rotating rod / rotorod), mice. The conditions noted are these: mouse, in vivo. The method, then: (§2) In the neurotoxicity test, the value (NTD50) is defined as the dose necessary to cause 50% of mice or rats trained to walk a rotating wooden rod (5 rpm) to fall at the time of peak effect, and is a measure of drug effects on motor function or central nervous system toxicity. The results set forth in Table III were obtained when the compound of Example 6 was tested against chlorpromazine and chlordiazepoxide.

Data set [5] has as its system maximal electroshock seizures in mice. Briefly: Maximal electroshock seizures. Conditions: I.P., mice; inactive at: Example 6 200 mg/kg, chlorpromazine 25 mg/kg. Type of data set: in vivo, mouse. The method, then:
Groups of ten mice each were injected i.p. with a vehicle and the compound of Example 6 and placed in individual Plexiglas squares. Thirty minutes after i.p. injection, each mouse was administered an electric shock transcorneally at 50mA intensity, 0.2 seconds duration (Swinyard, et al, J. Pharmacol. Exptl. Ther., 106: 319, 1952). The criterion for activity is protection against tonic extension of the hind limbs. The dose necessary to protect 50% of the mice (MES50) was determined.

For data set [6], the system named is isolation-induced fighting in mice. Kind of data set: Isolated fighting mouse (IFM) test / isolated mouse aggression. Type of data set: in vivo. Conditions: for ED50 / responders at 30 mg/kg: Mus musculus, ip; for ED50 / NTD50/ED50, Isolated Mouse Aggression: i.p. administration; for responders at 30 mg/kg: 30 mg/kg intraperitoneally, at least 40% protected = active; for protected test animals in the IFM test: dose not restated in this sentence. The method, then:
*IFM - Isolated fighting mouse test at a dose of 30 mg/kg
intraperitoneally; those compounds which protected at least 40% of the
(§3) Two models of aggression are used in the primary screening for neuroleptics, (1) isolation-induced fighting in mice (IFM), and (2) aggression induced in rats by destruction of the septal area (septal rat). Compounds are first submitted, however, to the neuropharmacological profile, a standard procedure (see, e.g., Samuel Irwin, Science, 136, 123 [1962]) employed in screening a compound to determine its usefulness as a central nervous system active compound. Those agents which cause depression over a wide dose range are then submitted to the first anti-aggression screen, the isolation-induced fighting mouse assay.
as §1

The nature of the next data set: 5 day lethality, mice. The conditions noted are these: mouse, in vivo. An excerpt:
(§4) Table VIII gives the results of 5 day lethality studies following single injections of drug. All values presented represent tests conducted when animals were housed 10 per cage. The compound of Example 6 was compared with chlorpromazine and chlordiazepoxide. In these and all the preceding calculations, the method of Litchfield and Wilcoxon (J. Pharmacol. Exptl. Ther., 96: 99, 1949) was used to estimate effective (ED50) or lethal (LD50) dose.

The subject of data set [7] is dihydroxyphenylalanine-induced fighting behavior in mice. Kind of data set: Dihydroxyphenylalanine (DOPA) fighting test. The format is in vivo, mouse. Conditions: for excitation, salivation, jumping, and fighting with d1-DOPA: 200 mg/kg d1-DOPA, pargyline 80 mg/kg, Example 6 100 mg/kg, chlorpromazine 5 mg/kg, chlordiazepoxide 15 mg/kg. Here is the method:
It is well known that when monoamine oxidase inhibitors are administered prior to the administration of d1-DOPA, which is a noradrenaline precursor, convulsions or excitation occur. In this study, the MAO inhibitor pargyline (80 mg/kg) was given 1, 2 and 4 hours prior to administering 200 mg/kg of d1-DOPA. […] Thus, in this procedure, none of the agents tested appears to be a MAO inhibitor.

For data set [8], the system named is aggression induced in rats by destruction of the septal area. Briefly: Septal rat aggression. Type of data set: in vivo. Conditions: for ED50: Rattus norvegicus, ip.
Text: as §3, §1

The nature of another data set: 5 day lethality, rats. Conditions: rat, in vivo, ip.
Text: as §4

The nature of data set [9]: Neurotoxicity (rotating rod / rotorod), rats. Conditions: rat, in vivo, ip. Here is the method: as §2
Data set [10] deals with pentylenetetrazol seizures in mice. Briefly: Pentylenetetrazol seizures. Conditions: I.P., mice; inactive at: Example 6 200 mg/kg, chlorpromazine 100 mg/kg. The format is in vivo, mouse. The method, then:
In this test (modification of the method introduced by Everett and Richard, J. Pharmacol. Exptl. Ther., 81: 402, 1944), groups of ten mice each are pretreated i.p. with vehicle and various doses of the compound of Example 6 and placed in Plexiglas squares. Thirty minutes later, all mice are injected subcutaneously (s.c.) with pentylenetetrazol at 125 mg/kg and observed immediately thereafter for convulsions and death for a period of 1 hour.

The test system of data set [11] is mice trained to walk a rotating wooden rod. Kind of data set: Neurotoxicity (rotating rod / rotorod), mice. Conditions: mouse, in vivo. The method, then:
as §2

The test system of data set [12] is tetrabenazine-induced ptosis in mice. Kind of data set: Antagonism of tetrabenazine-induced ptosis. Conditions: 200 mg/kg, 30 minutes before tetrabenazine 32 mg/kg intraperitoneally. The format is in vivo, mouse. Here is the method:
Groups of mice were given 32 mg/kg of tetrabenazine intraperitoneally 30 minutes after an injection of the compound of Example 6 (200 mg/kg). The degree of ptosis (eyelid drooping or closure) was then determined exactly 30 minutes after tetrabenazine administration.

The subject of the next data set is mice. Briefly: Neuropharmacological profile. Type of data set: in vivo, mouse.
Text: as §3
The compound of Example 6 was studied in the neuropharmacological profile, which, as indicated above, is a standardized multi-dimensional observation technique used on mice to grade symptomatology and acute toxicity relative to dosage.

The test system of data set [13] is hissing response elicited by hypothalamic stimulation in cats. Briefly: Evoked hypothalamic rage response - cats. The conditions noted are these: 25 mg/kg orally for three days. Type of data set: in vivo, cat. An excerpt:
The effect of the compound of Example 6 on the hissing response elicited by hypothalamic stimulation in cats was studied in an effort to determine if it had properties similar to that of chlordiazepoxide and other anti-anxiety-like agents. […] Cats with chronically implanted electrodes, stereotaxically placed in the perifornical region of the hypothalamus, were used in this study. Stimulation was accomplished in the unanesthetized, freely moving animal, and the threshold for the hissing response was determined with the following stimulus parameters: square wave stimulation of 150 Hz with a duration of 0.5 msec and voltage ranging from 5.4 to 30. The compound of Example 6 was administered orally in capsule form. Following administration, the stimulation threshold for the hiss response was determined at 1, 2, 4, 6 and 24 hours. If an effect was observed, the stimulation was carried out daily until the thresholds returned to control values. The compound of Example 6 was administered orally at a dose of 25 mg/kg for three days. […] It can be concluded that the compound of Example 6 has no effect on hypothalamic excitability in cats and in this respect differs markedly from chlordiazepoxide.

Data set [14] has as its system isolation-induced fighting in mice. Kind of data set: Isolated fighting mouse (IFM) test / isolated mouse aggression. The format is in vivo. The conditions noted are these: ip, 60 mg/kg intraperitoneally, read-out: IFM % protected.
Data set [15] has as its system tetrabenazine-induced ptosis in mice. The conditions noted are these: stated as known comparison; cited from earlier work.
Where [16] appears, read: ip, I.P., mice, 95% confidence limits, read-out: NTD50.
[17] abbreviates: read-out: ED50 (95% Confidence Limits), Isolated Mouse Aggression.
[18] abbreviates: i.p. administration, read-out: ED50 (95% Confidence Limits), Septal Rat Aggression.

Where a name gives a salt, the structure may show the parent alone. Read-outs that look alike come from different tables or passages of the source.

For `CN(C)CCCN1c2ccccc2Sc2ccc(Cl)cc21` [Chlorpromazine, chlorpromazine], the ED50 in data set [1] is 5.5 mg/kg; in data set [2], 1.7 mg/kg; in data set [3], 1.2 mg/kg; in data set [6] (setting [17]), 2.8 mg/kg; in [8] (setting [18]), 10.7 mg/kg. In addition, in [1] (i.p. administration), the “NTD50/ED50, Electroshock-Induced Fighting in Mice” value was 0.1. The TD50 in data set [4] (setting [16]) is 0.7 mg/kg; in [9] (I.P., rats, 95% confidence limits, read-out: NTD50) it was 5.3 mg/kg. Besides, the MES50 result in data set [5] is “Inactive”. The “NTD50/ED50, Isolated Mouse Aggression” value in data set [6] is on record as 0.3. Moreover, the 50% lethal dose (LD50) at 120 h was 136 mg/kg in the data set “5 day lethality, mice” (ip, Mice, I.P., 5 day, 10 per cage, read-out: LD50 (95% Confidence Limits)); 280 mg/kg in the data set “5 day lethality, mice” (po, Mice, P.O., 5 day, 10 per cage, read-out: LD50 (95% Confidence Limits)); 138 mg/kg in the data set “5 day lethality, rats” (Rats, I.P., 5 day, 10 per cage, read-out: LD50 (95% Confidence Limits)). The “excitation, salivation, jumping, and fighting with d1-DOPA” value in data set [7] is “these symptoms were not observed”. Also, the “NTD50/ED50, Septal Rat Aggression” value in data set [8] (i.p. administration) was determined as 0.5. Further, the MET50 entry in data set [10] is “Inactive”.
For the compound `Cc1ccc(NN=Nc2ccccc2C(N)=O)cc1Cl` [Example 3, 2-[3-(3-chloro-4-methylphenyl)-1(or 2)-triazeno]-benzamide], the depression result in data set [11] is listed as “do not cause depression”. The same compound came in with a TD50 in [4] of over 100 mg/kg. For the same compound, in [6], the responders at 30 mg/kg was determined as 100% and the “protected test animals in the IFM test” value amounted to 100%. For the same compound, the ED50 in data set [6] (read-out: ED50 (IFM)) came to 9.1 mg/kg.
Regarding `Cc1nc(NN=Nc2ccccc2C(N)=O)sc1C(=O)NCc1ccccc1` [Example 6, 2-[3-(4-methyl-5-(N-benzyl-carbamoyl)-2-thiazolyl)-2(or 1)-triazeno]-benzamide], in data set [12], the “reversal of tetrabenazine-induced ptosis” value was “did not reverse tetrabenazine-induced ptosis”. The ED50 in data set [1] (i.p. administration) is 96 mg/kg; in [2] (I.P., rats, 30 minutes after administration, 30 minute activity count), about 500 mg/kg; in data set [6] (setting [17]), 1.8 mg/kg; in data set [8] (setting [18]) it was about 4.5 mg/kg. Also, the “NTD50/ED50, Electroshock-Induced Fighting in Mice” value in [1] (i.p. administration) is 13.3. Further, the “ED50, d-amphetamine aggregation” value in data set [3] was “Inactive”. Also, the TD50 in [4] (setting [16]) is over 1280 mg/kg; in [9], about 500 mg/kg. Moreover, the MES50 entry in data set [5] was “Inactive”. The compound also registered a responders at 30 mg/kg in data set [6] of 100%. Besides, the “NTD50/ED50, Isolated Mouse Aggression” value in data set [6] amounted to 710. Also, the LD50 at 120 h in the data set “5 day lethality, mice” (ip) is over 1280 mg/kg; in “5 day lethality, mice” (po) it was over 800 mg/kg; in the data set “5 day lethality, rats”, over 1400 mg/kg. Besides, the “deaths in neuropharmacological profile” value with mice (30, 100, 300 mg/kg, mice) is “No deaths occurred”. Moreover, the “central nervous system depressant action, profile result” value in the data set on mice (mouse, in vivo) was “very weak central nervous system depressant”. Moreover, in [7], the “excitation, salivation, jumping, and fighting with d1-DOPA” value is reported as “these symptoms were not observed”. Besides, the “potentiation of dihydroxyphenylalanine-induced fighting behavior in mice” value in [7] (mice) is given as “failed to (1) potentiate dihydroxyphenylalanine-induced fighting behavior in mice”. The “NTD50/ED50, Septal Rat Aggression” value in data set [8] (i.p. administration) was found to be 111.0. Also, in data set [8] (septal rat), the “selectivity in inhibition of septal rat aggression versus chlordiazepoxide” value was 185 times. Moreover, the “decrease of the threshold for the rage response” value in data set [13] is reported as “not observed during the experiments”. The “delay from stimulus to response” value in [13] was “not changed”. Also, in data set [13], the “rage response, intensity or character” value is “not changed in intensity or character”. Also, the “effect on hypothalamic stimulation (threshold)” value in data set [13] (25 mg/kg) is reported as “no effect on hypothalamic stimulation”. Besides, the MET50 result in [10] is recorded as “Inactive”.
On to `Cc1nc(NN=Nc2ccccc2C(=O)NCCCN(C)C)sc1C(=O)NCc1ccccc1` [Example 7, N-(3-dimethylaminopropyl)-2-[3-(4-methyl-5-(N-benzylcarbamoyl)-2-thiazolyl)-2(or 1)-triazeno]-benzamide (2:1) sulfate salt], for which, in [14], the responders at 60 mg/kg is 100%. The depression entry in data set [11] is “do not cause depression”. In addition, in data set [4], the TD50 is over 100 mg/kg. The “protected test animals in the IFM test” value in [6] is on record as 100%. Moreover, the “septal rat aggression, protection” value in data set [8] (6.25 mg/kg i.p.) and in data set [8] (12.5 mg/kg i.p.) was 100% throughout. For the same compound, the ED50 in [8] (indicated by 100% protection at 6.25 mg/kg, read-out: ED50, septal rat aggression) was under 6.25 mg/kg.
With `CN(C)CCC=C1c2ccccc2CCc2ccccc21` [amitriptyline], the “reversal of tetrabenazine-induced ptosis by anti-depressants” value in [15] is “reverse tetrabenazine-induced ptosis”.
`CNCCCN1c2ccccc2CCc2ccccc21` [desipramine]: the “reversal of tetrabenazine-induced ptosis by anti-depressants” value in data set [15] is “reverse tetrabenazine-induced ptosis”.
